Measured values reported in patent US20240318220A1, “IONIC LIQUIDS BASED ON UNNATURAL AMINO ACIDS, PREPARATION METHODS THEREOF, AND APPLICATIONS THEREOF” (PEKING UNIVERSITY, priority 2022, published 2024).

Experiments:
[1] = Serum concentration curve of NAEK after oral administration; assay type: in vivo; settings: mice, 30 mg NAEK or equimolar amount
Experimental: FIG. 5B. […] The NAEK content in the serum reached a maximum of about 1.6 μg/mL two hours after oral administration, as evidenced by the curve in the NAEK-aqueous solution group. Subsequently, 8 hours after oral administration, the NAEK content in the serum diminished to nearly zero, indicating rapid metabolism of NAEK, which could be completed in 6 hours. […] Furthermore, only 22 hours after oral administration, the serum NAEK content approached zero, indicating complete metabolism within approximately […].
Two experimental groups were set, with 12 mice in each group. In one group, each mouse was orally administered with 30 mg NAEK aqueous solution, and in the other group, each mouse was orally administered with an equimolar amount of Ch-NAEK. Blood was collected from the orbital plexus of the mice at 1 h, 2 h, 4 h, 6 h, 8 h, 9 h, 10 h, 14 h, 19 h, and 22 h time points to plot the NAEK serum concentration in mice as function of time (FIG. 5B).

[2] = system: mdx mice; assay: Full-length expression of Dystrophin in muscle tissue by immunoblotting; assay type: in vivo; settings: mdx mice with AAV-MmpylRS-tRNA, oral, 2 weeks
Experimental: FIG. 12. Flow Diagram of Treating DMD Disease in Mdx Mouse Model Using Ionic Liquid Ch-NAEK and the Codon Expansion System Experimental exploration was conducted to investigate the treatment of DMD disease. Following successful synthesis, identification and activity evaluation of the three ionic liquids Ch-NAEK, Ch-pAcF and Ch-Anap, Ch-NAEK was selected as the preferred ionic liquid for subsequent disease treatment. mdx mice with DMD disease were initially intramuscularly injected with AAV-MmpylRS-tRNA virus and subsequently orally administered with Ch-NAEK (at a mass volume fraction of 70%) daily for four weeks. Muscle tissue samples were collected in the first, second, and fourth weeks for detection of Dystrophin protein restoration. HE pathological staining of mouse muscle tissue, determination of serum CK kinase content, and testing of mouse grip strength were performed.
mdx mice, a classic mouse model for DMD (Duchenne Muscular Dystrophy) research, have a nonsense mutation of TAA at the […] of Dystrophin exon, resulting in the failure of normal expression of Dystrophin, and thus leading to symptoms of muscle atrophy in muscle and heart tissues in mice. mdx mice injected with AAV-MmpylRS-tRNA virus were divided into two experimental groups. […] The therapeutic effects were evaluated at the time points of 1, 2, and 4 weeks after administration. […]

[N-]=[N+]=NCCOC(=O)NCCCC[C@H](N)C(=O)O [NAEK-aqueous solution]
maximum NAEK content in serum [1]: about 1.6 μg/mL | time after oral administration at which serum NAEK content approached zero [1]: 8 h | time for complete metabolism of NAEK [1]: 6 h | time of maximum serum NAEK content after oral administration [1]: two | restoration of full-length disease protein (Dystrophin) expression, in words [2]: very low
